Key:
[1] = system: Trichostrongylus colubriformis; test: In vivo nematode test, Trichostrongylus colubriformis / sheep (faecal egg count before and after treatment); details: experimentally infected sheep (Schaf), treated after the prepatent period, pure active substance in gelatin capsules, oral, dose giving complete cessation of egg excretion, read-out: Dosis effectiva
Source text: Trichostrongylus colubriformis / Schaf
Experimentell mit Trichostrongylus colubriformis infizierte Schafe wurden nach Ablauf der Präpatenzzeit des Parasiten behandelt. Die Wirkstoffe wurden als reiner Wirkstoff in Gelatinekapseln oral appliziert.
(§1) Der Wirkungsgrad wird dadurch bestimmt, daß man die mit dem Kot ausgeschiedenen Wurmeier vor und nach der Behandlung quantitativ auszählt.
(§2) Ein völliges Sistieren der Eiausscheidung nach der Behandlung bedeutet, daß die Würmer abgetrieben wurden oder so geschädigt sind, daß sie keine Eier mehr produzieren (Dosis effectiva).
(§3) Geprüfte Wirkstoffe und wirksame Dosierungen (Dosis effectiva) sind aus der nachfolgenden Tabelle ersichtlich.

Haemonchus contortus = test: In vivo nematode test, Haemonchus contortus / sheep (faecal egg count before and after treatment); details: experimentally infected sheep (Schaf), treated after the prepatent period, pure active substance in gelatin capsules, oral, dose giving complete cessation of egg excretion, read-out: Dosis effectiva
Source text: Haemonchus contortus / Schaf
Experimentell mit Haemonchus contortus infizierte Schafe wurden nach Ablauf der Präpatenzzeit des Parasiten behandelt. Die Wirkstoffe wurden als reiner Wirkstoff in Gelatinekapseln oral appliziert.
as §1, §2, §3

Row | Structure (SMILES) | minimal effective dose [1] [mg/kg] | minimal effective dose (Haemonchus contortus) [mg/kg]
1 | Cc1ccccc1NC(=O)c1c(-c2c(Cl)cccc2Cl)noc1C [Beispiel 116] | 5 | 10
2 | CCc1onc(-c2c(Cl)cccc2Cl)c1C(=O)Nc1ccc(SC(F)(F)F)cc1 [Beispiel 127] | 5 | 10
3 | Cc1ccccc1NC(=O)c1c(-c2c(F)cccc2Cl)noc1C [Beispiel 221] | – | 5
4 | Cc1onc(-c2c(Cl)cccc2Cl)c1C(=O)Oc1ccc(Cl)cc1 [Beispiel 62] | 10 | 10
5 | Cc1onc(-c2c(Cl)cccc2Cl)c1C(=O)Nc1cc(F)cc(F)c1 [Beispiel 103] | – | 10
6 | Cc1ccc(OC(=O)c2c(-c3c(Cl)cccc3Cl)noc2C)cc1 [Beispiel 59] | 5 | 10
7 | CCCCCCCCCCCCCCCCCCNC(=O)c1c(-c2c(Cl)cccc2Cl)noc1CC [Beispiel 1, N-Oktadecyl-3-(2,6-dichlor-phenyl)-5-ethyl-isoxazol-4-carbonsäureamid] | 10 | 5
8 | Cc1ccc(NC(=O)c2c(-c3c(Cl)cccc3Cl)noc2C)cc1 [Beispiel 119] | 10 | 5
9 | CCCCCCCCCCCCCCCCCCNC(=O)c1c(-c2c(Cl)cccc2Cl)noc1C [Beispiel 83] | 10 | 10
10 | Cc1onc(-c2c(F)cccc2Cl)c1C(=O)Nc1ccc(Cl)cc1F [Beispiel 230] | 5 | 10

— EP0573883A1, “Utilization of 3 substituted aryl-5-alkyl-isoxazole-4-carboxylic acid derivatives against endoparasites new 3-substituted aryl-5-alkyl-isoxazole-4-carboxylic acid derivatives and process for their preparation” (BAYER AG, priority 1992, dated 1993)
